Assay results published in patent publication EP0049797A2, “Anthelminticum containing 2-(2,3-dimethyl-phenoxy-methyl)-2-imidazoline” (BAYER AG, priority 1980, dated 1982).
Read-outs that look alike come from different tables or passages of the source.

Experiments:
[1] = test system: Haemonchus contortus normaler Stamm; test: Stomach and intestinal worm test in sheep (faecal egg count reduction), normal strain; type: in vivo, Schaf; settings: read-out: Dosis effectiva minima (Red. 90 % in mg/kg)
Source text: (§1) Magen- und Darmwurmtest/Schaf
(§2) Experimentell mit Haemonchus contortus infizierte Schafe wurden nach Ablauf der Präpatenzzeit der Parasiten behandelt. Die Wirkstoffmenge wurde als reiner Wirkstoff in Gelatinekapseln oral appliziert oder in einem geeigneten Lösungsmittel gelöst und subcutan oder dermal appliziert.
(§3) Der Wirkungsgrad wird dadurch bestimmt, daß man die mit dem Kot ausgeschiedenen Wurmeier vor und nach der Be-handlung quantitativ auszählt.
(§4) Ein völliges Sistieren der Eiausscheidung nach der Behandlung bedeutet, daß die Würmer abgetrieben wurden oder so geschädigt sind, daß sie keine Eier mehr produzieren können (Dosis effectiva). Geprüfte Wirkstoffe und wirksame Dosierungen (dosis effectiva minima) sind aus der nachfolgenden Tabelle ersichtlich.

[2] = test system: Haemonchus contortus gegen Benz-imidazole resistenter Stamm; test: Stomach and intestinal worm test in sheep (faecal egg count reduction), benzimidazole-resistant strain; type: in vivo, Schaf; settings: read-out: Dosis effectiva minima (Red. 90 % in mg/kg), per os, experimentally infected sheep
Source text: as §1, §2, §3, §4

[3] = per os, experimentally infected sheep, normaler Stamm

SMILES | minimal effective dose ([1]; dermal, experimentally infected sheep, normaler Stamm) [mg/kg] | minimal effective dose [1, 3] [mg/kg] | minimal effective dose ([1]; subcutan, experimentally infected sheep, normaler Stamm) [mg/kg] | minimal effective dose [1] [mg/kg] | minimal effective dose [2] [mg/kg]
Cc1cccc(OCC2=NCCN2)c1C [2-(2,3-Dimethyl-phenoxymethyl)-2-imidazolin] | 1 | 0.5 | 0.5 | – | –
CCCSc1ccc2nc(NC(=O)OC)[nH]c2c1 [Albendazol] | – | – | – | 0.5 | 5
CCCCc1ccc2[nH]c(NC(=O)OC)nc2c1 [Parbendazol] | – | – | – | 1 | 10
c1ccc2[nH]c(-c3cscn3)nc2c1 [Thiabenzol] | – | 25 | – | – | 250
